Experimental findings from PubChem BioAssay (NCI) are described below.

Common to all, as to experiment: NCI-60 cell line screen, 48 h
Assay [1] relates to HOP-92 NSCLC.
Assay [2] deals with PC-3 prostate.
Assay [3] has as its system A498 renal.
Assay [4] deals with T-47D breast.
In assay [5] the test system is MDA-MB-435.
In assay [6] the test system is NCI-H522 lung.
For assay [7], the system named is HT29 colon.
For assay [8], the system named is RPMI-8226 leukemia.
In assay [9] the test system is A549 NSCLC.
Assay [10] has as its system COLO 205 colon.

“And” between values parts separate entries of the source, which are not always exact repeats. Identical values can stand only once.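 How tested: cells in 96-well plates exposed to compound for 48 hours at five concentrations. The concentration for 50% growth inhibition is given as GI50. TGI marks complete inhibition of growth.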

With `C=C1C(=O)O[C@H]2[C@H]1CC/C(COC(=O)C(=O)c1c[nH]c3ccccc13)=C\CC[C@@]1(C)O[C@@H]21`, the GI50 in assay [1] was 2040 nM; in assay [2], 2130 nM; in [3] it was 8560 nM; in [4] it was 1610 nM; in assay [5], 2630 nM; in assay [6] it was 878 nM. Moreover, the GI50 in assay [7] was 1210 nM; in assay [8] it was 2070 nM; in [9], 2270 nM; in [10], 1800 nM. Also, the TGI is 4490 nM in assay [1]; 4370 nM in assay [2]; 20700 nM in assay [3]; 4470 nM in [4]; 9820 nM in assay [5]; 2400 nM in assay [6]. Moreover, the TGI in assay [7] is 2680 nM; in assay [8], 10900 nM; in assay [9], 6080 nM; in [10], 3910 nM.
As for `Cc1ccc(NC(c2ccccc2)c2ccc3cccnc3c2O)cc1` (stereo not given), the TGI in assay [1] worked out at 16000 nM; in assay [2], 14300 nM; in [3], 54800 nM; in assay [4] it was 36000 nM; in assay [5] it was 19300 nM; in [6] it was 8530 nM. For the same molecule, the TGI in [7] is 13600 nM; in [8] it was 19200 nM; in assay [9], 41300 nM; in assay [10], 16500 nM.
As for `CC(C)C[C@@H](NC(=O)[C@@H](Cc1ccccc1)NC(=O)c1cnccn1)B1O[C@H]2[C@H](O)[C@@H](C(=O)NCCCC[C@@H]3NC(=O)[C@@H](Cc4ccccc4)NC(=O)[C@H](CC(=O)O)NC(=O)CNC(=O)[C@H](CCCN=C(N)N)NC3=O)O[C@@H](CN)[C@H]2O1`, the GI50 in assay [1] was 10.8 nM and 5.48 nM; in assay [2], 27.3 nM and 15.3 nM; in [3] it was 3.09 nM and 5 nM; in assay [4], 5.98 nM and 5 nM; in assay [5], 2.87 nM and < 5 nM; in [6], 3.3 nM and < 5 nM. In addition, the GI50 in assay [7] is 4.18 nM and 5 nM; in [8] it was 3.73 nM and 5 nM; in [9] it was 28.8 nM and 14.8 nM; in assay [10] it was 26.2 nM and 5 nM. Further, the TGI in assay [1] is 56.5 nM and 23.6 nM; in assay [2] it was 389 nM and 563 nM; in assay [3], 12.7 nM and 10.6 nM; in [4], 64.8 nM and 25 nM; in [5], 8.91 nM and < 5 nM; in assay [6] it was 11.5 nM and < 5 nM. In addition, the TGI in [7] was 32.5 nM and 7.63 nM; in assay [8] it was 267 nM and 1040 nM; in assay [9], 658 nM; in assay [10], 373 nM and 119 nM.
Turning to `COc1cc(/C=C(/C)[N+](=O)[O-])ccc1O`, the GI50 in assay [1] was 1620 nM and 1840 nM; in assay [2], 2680 nM and 2740 nM; in assay [3] it was 5890 nM and 11600 nM; in assay [4], 2070 nM and 2250 nM; in assay [5], 2160 nM and 1640 nM; in assay [6], 460 nM and 282 nM. The GI50 was 2630 nM in assay [7]; 737 nM and 1730 nM in assay [8]; 3940 nM and 2500 nM in assay [9]; 1990 nM and 1450 nM in assay [10]. Besides, the TGI in [1] is 4400 nM and 4280 nM; in [2], 7270 nM and 6860 nM; in assay [3], 13700 nM and 23800 nM; in assay [4], 5050 nM and 5720 nM; in assay [5] it was 6330 nM and 4400 nM; in assay [6], 1400 nM and 1090 nM. Besides, the TGI in [7] was 6090 nM; in assay [8] it was 2530 nM and 4250 nM; in [9], 14600 nM and 7070 nM; in assay [10], 3990 nM and 2850 nM.
For `O=C(Nc1ccc(S(=O)(=O)Nc2nccs2)cc1)c1cccnc1Nc1cccc(Cl)c1`, the GI50 in [1] is 11200 nM; in [2], 14300 nM; in assay [3] it was 10100 nM; in [4] it was 8420 nM; in assay [5], 14300 nM; in [6], 11000 nM. The GI50 in [7] was 16700 nM; in [8], 19800 nM; in assay [9], 15300 nM; in assay [10], 18000 nM. The TGI in [1] was 36500 nM; in [2], 43000 nM; in [3], 23700 nM; in assay [4], above 100000 nM; in assay [5] it was 33400 nM; in [6], 28400 nM. Also, the TGI was 30300 nM in assay [7], 89200 nM in assay [8], 39800 nM in assay [9] and 33200 nM in assay [10].
With `Oc1c(CN2CCC(N3CCOCC3)CC2)cc(Cc2cc(CN3CCC(N4CCOCC4)CC3)c(O)c3ncccc23)c2cccnc12`, the GI50 was 4160 nM in assay [1]; 565 nM in assay [2]; 3740 nM in assay [3]; 1110 nM in assay [4]; 2010 nM in [5]; 2530 nM in assay [6]. For the same molecule, the GI50 was 709 nM in assay [7], 3770 nM in [8], 1620 nM in assay [9] and 596 nM in assay [10]. Besides, the TGI in assay [1] is 36600 nM; in assay [2], above 100000 nM; in [3], 13900 nM; in assay [4] it was 17000 nM; in assay [5], 74700 nM; in [6], 9950 nM. Also, the TGI in [7] was 22300 nM; in assay [8], above 100000 nM; in assay [9] it was 12500 nM; in assay [10], 10600 nM.
